In PubChem BioAssay (NCI):
Where “and” joins values, the source holds several entries; their conditions need not be identical. Equal values may be shown once.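 Five concentrations, 48 hours, 96-well plates. The concentration for 50% growth inhibition is given as GI50. TGI: total growth inhibition.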

Legend:
Assay in all cases: NCI anticancer screen, dose series, 48 h
786-0 renal = tested on: 786-0 renal
CAKI-1 renal = tested on: CAKI-1 renal
HCC-2998 colon = tested on: HCC-2998 colon
K-562 leukemia = tested on: K-562 leukemia
MALME-3M melanoma = tested on: MALME-3M melanoma
NCI/ADR-RES ovarian = tested on: NCI/ADR-RES ovarian
OVCAR-5 ovarian = tested on: OVCAR-5 ovarian
SNB-19 CNS = tested on: SNB-19 CNS
U251 CNS = tested on: U251 CNS
UO-31 renal = tested on: UO-31 renal
NCI-H522 lung = tested on: NCI-H522 lung
MDA-N = tested on: MDA-N

SMILES | TGI (786-0 renal) | GI50 (CAKI-1 renal) | TGI (CAKI-1 renal) | GI50 (HCC-2998 colon) | TGI (HCC-2998 colon) | GI50 (K-562 leukemia) | GI50 (MALME-3M melanoma) | TGI (MALME-3M melanoma) | GI50 (NCI/ADR-RES ovarian) | GI50 (OVCAR-5 ovarian) | TGI (OVCAR-5 ovarian) | TGI (SNB-19 CNS) | GI50 (U251 CNS) | TGI (U251 CNS) | TGI (UO-31 renal) | TGI (K-562 leukemia) | TGI (NCI-H522 lung) | TGI (NCI/ADR-RES ovarian) | TGI (MDA-N)
CC(C)C[C@H](NC(=O)[C@H](Cc1cccc2ccccc12)NC(=O)N1CCOCC1)B(O)O | 0.199 µM and 1.09 µM | 0.00283 µM | 0.0147 µM and 0.0371 µM | 0.00158 µM | 0.00302 µM | 0.00347 µM | 0.000373 µM | 0.00306 µM and < 0.0169 µM | 0.267 µM | 0.00186 µM | 0.00534 µM and < 0.0405 µM | > 100 µM | 0.00196 µM | 0.0245 µM and 0.0429 µM | 0.159 µM and 0.211 µM |  |  |  | 
COC(=O)/C=C/c1ccccc1N=[S@](C)(=O)c1ccc(C)cc1 | > 100 µM |  | > 100 µM |  | 50.1 µM |  |  | > 100 µM |  |  | > 100 µM | > 100 µM |  | 51 µM | > 100 µM | > 100 µM | 7.99 µM | 72.5 µM | 
Cc1cc2c(cc1Cl)Sc1nnc(Nc3ccccc3)n1S2(=O)=O | 19.1 µM |  | 53.8 µM |  | 14.2 µM |  |  |  |  |  | > 100 µM |  |  | 19.1 µM | 41.8 µM | > 100 µM | 14.2 µM | 23.4 µM | 31.2 µM
Cc1cnc2c(C)ccc([N+](=O)[O-])c2c1NCCCN(C)C | > 100 µM |  | > 100 µM |  | > 100 µM |  |  | > 100 µM |  |  | > 100 µM | > 100 µM |  | > 100 µM | > 100 µM | > 100 µM | > 100 µM |  | 
CC(=O)C(C(C)=O)=C1CCCC(O)O1 (stereo unspecified) | > 100 µM |  |  |  | > 100 µM |  |  | > 100 µM |  |  | > 100 µM | > 100 µM |  | > 100 µM | > 100 µM | > 100 µM |  | > 100 µM | 
CC(C)CCCC(C)[C@H]1CCC2[C@@H]3CCC4Cc5nc6c(nc5C[C@]4(C)C3CC[C@@]21C)CC1CC[C@@H]2C(C[C@@H](O)[C@@]3(C)C2C[C@@H]2OC4(CCC(C)CO4)C(C)[C@@H]23)[C@@]1(C)C6 (stereo partly specified) | > 100 µM |  |  |  | > 100 µM |  |  |  |  |  | > 100 µM | > 100 µM |  | > 100 µM |  | > 100 µM | > 100 µM | > 100 µM | > 100 µM
CCc1cccc(C(C)C)c1NC(=O)C(=O)C(Cc1nc2ccccc2[nH]c1=O)C(=O)OC (stereo unspecified) | > 100 µM |  | > 100 µM |  | > 100 µM |  |  | > 100 µM |  |  | > 100 µM | > 100 µM |  | > 100 µM | > 100 µM | > 100 µM | > 100 µM |  | 
COC1=CC(=O)c2ccccc2C1(CCC=C(C)C)C1=NC(C)(C)CO1 (stereo unspecified) | > 100 µM |  | > 100 µM |  |  |  |  | > 100 µM |  |  |  | > 100 µM |  | > 100 µM | > 100 µM | > 100 µM | > 100 µM |  | 
O=c1c2ccccc2[nH]c(=S)n1-c1ccc(Br)cc1 | > 100 µM |  |  |  | > 100 µM |  |  | > 100 µM |  |  |  | > 100 µM |  | > 100 µM | > 100 µM | > 100 µM | > 100 µM |  | 
CCNC(=O)Nc1cccc(C)n1 | > 100 µM |  | > 100 µM |  | > 100 µM |  |  | > 100 µM |  |  | > 100 µM | > 100 µM |  | > 100 µM | > 100 µM | > 100 µM | > 100 µM |  | > 100 µM
